Columns and labels:
PC12 cells = conditions: cultures of PC12 cells; cited from earlier work
sensory ganglia = conditions: cultures of sensory ganglia; cited from earlier work
[1] = system: Primary Rat Hippocampal Cells; test: Neurite outgrowth assay (MAP-2 immunofluorescence) in primary rat hippocampal cells; type: cell-based; conditions: MAP-2 fluorescence, active if greater than mean DMSO-treated control on same plate, NA = Not active
Experimental: Hippocampal cells are dissected from the brains of embryonic day 18 rat pups and dissociated with trypsin (1 mg/mL) and trituration. Cells are seeded at 30,000 cells/well in 96-well plates filled with 100 μL MEM and 10%FBS. At 7 days in culture, cells are fixed with 4% paraformaldehyde and immunofluorescence is performed.
(§1) Cultures are incubated with normal horse serum (1:50; Vector Labs) for about 20 min, rinsed and then incubated with primary antibody, microtubule associated-protein 2 (anti-mouse MAP-2; 1:1000; Chemicon) for about 2 h at about RT. Following primary antibody, cultures are rinsed and incubated with fluorescein anti-mouse IgG (rat absorbed; 1:50; Vector Labs) for about 1 h. After fluorescein incubation, the cultures are rinsed and read in PBS on a fluorescent plate reader (excitation: 485 nm; emission: 530 nm). A compound is regarded as active if the neurite outgrowth response is greater than the mean DMSO-treated control response on the same plate. The response to test compound is reported as percent of DMSO-treated control (absent the percentage sign). The signal-to-noise separation is consistent: the fluorescence from DMSO control wells is at least two-fold greater than blank wells.

[2] = system: Human M17 Neuroblastoma Cells; test: Neurite outgrowth assay (MAP-2 immunofluorescence) in M17 neuroblastoma cells; type: cell-based; conditions: MAP-2 fluorescence, active if greater than mean DMSO-treated control on same plate, NA = Not active
Experimental: M17 human neuroblastoma cells are cultured in 1:1 ratio of EMEM and Ham's F12 with 1×NEAA and 10% FBS. The culture media contains 1×PSN antibiotic and is exchanged every other day, and the cells are passed in log phase near confluence.
as §1

DRG = test: Dorsal root ganglion (DRG) culture, neurite outgrowth; type: cell-based, CD rats; set-up: key: + = Positive results for each experiment; − = Negative results for each experiment; NA = Not active; conditions: test compound 50-250 nM; neurite outgrowth examined on days 1-5; positive (+) if compound induced neurites of ≧1 diameter of the DRG
Experimental: DRG are dissected from newborn or 1-day-old CD rats and placed into PBS on ice. After rinsing twice with sterile plating medium, DRG are transferred to empty wells of a 6-well plate coated with polyomithine/laminin (Becton Dickinson Labware) using #7 curved forceps. Three ml/well of plating medium are then added very gently, so as not to disturb the DRG. Plating medium is Leibovitz's L-15 medium (Gibco), plus 0.6% glucose, 33 mM KCl, 10% FCS, 10 mM Hepes and penicillin/streptomycin/glutamine. After overnight incubation at about 37° C. in 5% CO2, this medium is replaced with 3 mL/well of assay medium [Leibovitz's L-15 medium plus 0.6% glucose, 1% FCS, 1% N-2 supplement (Gibco), […], 10 mM Hepes, and penicillin/streptomycin/glutamine] containing either vehicle (DMSO, 1/200,000), positive control (2-4 ng/mL NGF) or test compound (50-250 nM). All media are prepared fresh daily. DRG are microscopically examined for neurite outgrowth on days 1-5.

facial nerve = test: Rat facial nerve compression model; type: in vivo, Long-Evans rats; conditions: p.o. about 20 mg/kg twice a day for 15 days after surgery; compared to vehicle and internal control; FIG. 1
Experimental: In this model, compressing the facial nerve causes paralysis of the whisker muscle on that side of the face. The untreated facial nerve on the other side functions as an internal control. […] The whisker movement recovery rate on the paralyzed side compared to the vehicle and internal control is shown in this FIGURE.
Long-Evans rats are anesthetized under ketamine (60 mg/kg)/xylazine (6 mg/kg). The facial nerve is exposed and mechanically compressed with forceps near the stylomastoid foramen unilaterally with the opposite, non-lesioned side serving as an internal control. […] Rats received test compound p.o. at about 20 mg/kg twice a day for 15 days after the surgery. Control rats received vehicle only. Three to eight rats are tested in each group. Restoration of whisker movement after the treatment with compounds of the present invention is recorded at different post-operative time points daily, up to two weeks, and is shown in FIG. 1.

Structure (SMILES)	Rat Hippocampal Cell Response [1]	M17 Cell Response [2]	also measured
C=CC[C@@H]1/C=C(\C)C[C@H](C)C[C@H](OC)[C@H]2O[C@@](O)(C(=O)C(=O)N3CCCC[C@H]3C(=O)O[C@H](/C(C)=C/[C@@H]3CC[C@@H](O)[C@H](OC)C3)[C@H](C)[C@@H](O)CC1=O)[C@H](C)C[C@@H]2OC [FK506]	–	–	neurotrophic activity (PC12 cells): shows neurotrophic activity; neurotrophic activity (sensory ganglia): shows neurotrophic activity
CCC(C)(C)C(=O)C(=O)N1CC[C@H]1C(=O)OCCC(c1ccccc1)c1ccccc1 [Compound 3, (2S)-(3,3-Diphenyl-1-propyl)1-(1,2-dioxo-3,3-dimethylpentyl) azetidine-2-carboxylate]	119% of DMSO-treated control	110% of DMSO-treated control	–
CC(C)(C)NC(=O)N1CC[C@H]1C(=O)OCCCc1cccnc1 [Compound 7]	123% of DMSO-treated control	–	–
CCC(C)(C)C(=O)C(=O)N1[C@H](C(=O)OCCCCc2ccc(OC)cc2)C[C@H]1C(=O)OCCCCc1ccc(OC)cc1 [Compound 21, (2S,4S)-Bis-[4-(4-methoxyphenyl)-1-butyl]-1-(1,2-dioxo-3,3-dimethylpentyl)azetidine-2,4-dicarboxylate]	–	103% of DMSO-treated control	–
CCC(C)(C)C(=O)C(=O)N1[C@@H](C(=O)OCCCCc2ccc(OC)cc2)C[C@H]1C(=O)OCCCCc1ccc(OC)cc1 [Compound 16, (2S,4R)-Bis-[4-(4-methoxyphenyl)-1-butyl]-1-(1,2-dioxo-3,3-dimethylpentyl)azetidine-2,4-dicarboxylate]	–	114% of DMSO-treated control	–
CCC(C)(C)C(=O)C(=O)N1CC[C@H]1C(=O)OCCCc1cccnc1 [Compound 1, (2S)-[3-(3-Pyridyl)1-propyl]-1-(1,2-dioxo-3,3-dimethylpentyl)azetidine-2-carboxylate]	–	140% of DMSO-treated control	DRG (DRG): +; Restoration of whisker movement on the paralyzed side (facial nerve): restored more rapidly
CCC(C)(C)C(=O)C(=O)N1CC[C@H]1C(=O)OC(C)(C)CCc1cccnc1 [Compound 2, (2S)-[3-(3-Pyridyl)-1,1-dimethyl-1-propyl]-1-(1,2-dioxo-3,3-dimethylpentyl)azetidine-2-dicarboxylate]	–	134% of DMSO-treated control	DRG (DRG): +
O=C(C(=O)N1CC[C@H]1C(=O)OCCCc1cccnc1)c1ccccc1 [Compound 9]	112% of DMSO-treated control	–	–
CC(C)(C)C(=O)C(=O)N1CC[C@H]1C(=O)OCCCc1cccnc1 [Compound 10, (2S)-[3-(3-Pyridyl)-1-propyl]-1-(1,2-dioxo-3,3-dimethylbutyl)azetidine-2-carboxylate]	123% of DMSO-treated control	–	–
Cc1cc(C(=O)N2CC[C@H]2C(=O)OCCCc2cccnc2)nn1C [Compound 13, (2S)-[3-(3-Pyridyl)-1-propyl]-1-[(1,5-dimethylpyrazol-3-yl)carbonyl]azetidine-2-carboxylate]	123% of DMSO-treated control	–	–
CCC(C)(C)C(=O)C(=O)N1CC[C@H]1C(=O)OCCCCc1ccc(OC)cc1 [Compound 4, (2S)-[4-(4-Methoxyphenyl)-1-butyl]-1-(1,2-dioxo-3,3-dimethylpentyl)azetidine-2-carboxylate]	–	107% of DMSO-treated control	–
O=C(C(=O)N1CC[C@H]1C(=O)OCCCc1cccnc1)c1cccs1 [Compound 11, (2S)-[3-(3-Pyridyl)-1-propyl]-1-[1,2-dioxo-2-(thien-2-yl)ethyl]azetidine-2-carboxylate]	114% of DMSO-treated control	–	–
CCC(C)(C)C(=O)C(=O)N1C(C(=O)OCCCc2cccnc2)C[C@@H]1C(=O)OCCCc1cccnc1 (stereo partly drawn) [Compound 20, (2R,4R)-Bis-[3-(3-pyridyl)-1-propyl]-1-(1,2-dioxo-3,3-dimethylpentyl)azetidine-2,4-dicarboxylate]	–	103% of DMSO-treated control	–
CCC(C)(C)C(=O)C(=O)N1[C@@H](C(=O)OCCC(c2ccccc2)c2ccccc2)C[C@H]1C(=O)OCCC(c1ccccc1)c1ccccc1 [Compound 17, (2S,4R)-Bis-(3,3-diphenyl-1-propyl)-1-(1,2-dioxo-3,3-dimethylpentyl)azetidine-2,4-dicarboxylate]	–	106% of DMSO-treated control	–
CCC(C)(C)C(=O)C(=O)N1C(C(=O)OCCCc2cccnc2)C[C@H]1C(=O)OCCCc1cccnc1 (stereo partly drawn) [Compound 18, (2S,4R)-Bis-[3-(3-pyridyl)-1-propyl]-1-(1,2-dioxo-3,3-dimethylpentyl)azetidine-2,4-dicarboxylate]	137% of DMSO-treated control	106% of DMSO-treated control	–
CCC(C)(C)C(=O)C(=O)N1[C@@H](C(=O)OCCCCc2ccc(OC)cc2)C[C@@H]1C(=O)OCCCCc1ccc(OC)cc1 [Compound 19, (2R,4R)-Bis-[4-(4-methoxyphenyl)-1-butyl]-1-(1,2-dioxo-3,3-dimethylpentyl)azetidine-2,4-dicarboxylate]	–	111% of DMSO-treated control	–
COc1ccc(CCCCOC(=O)[C@@H]2C[C@@H](C(=O)OCCCCc3ccc(OC)cc3)N2C(=O)C(=O)c2ccccc2)cc1 [Compound 15, (2S,4S)-Bis-[4-(4-methoxyphenyl)-1-butyl)-1-(1,2-dioxo-2-phenylethyl)azetidine-2,4-dicarboxylate]	126% of DMSO-treated control	–	–
CCC(C)(C)C(=O)C(=O)N1CC[C@H]1c1nnnn1CCCc1cccnc1 [Compound 14, (2S)-1-(1,2-Dioxo-3,3-dimethylpentyl)2-(1-[3-(3-pyridyl)-1-propyl]-1H-tetrazol-5-yl)azetidine]	118% of DMSO-treated control	–	–

Reference: patent US6544976B1, “Neurotrophic 2-azetidinecarboxylic acid derivatives, and related compositions and methods” (Ortho-McNeil Pharmaceutical, Inc., priority 1999, dated 2003)
